Assay results as given in ChEMBL document CHEMBL1143584, “Synthesis of 2',3'-dideoxynucleoside 5'-alpha-P-borano-beta,gamma-(difluoromethylene)triphosphates and their inhibition of HIV-1 reverse transcriptase” (J Med Chem, 2005).

Experiments:
[1] = Half-life determined in fetal calf serum; format: ADME, Bos taurus; settings: cattle
[2] = biological target: Human immunodeficiency virus type 1 reverse transcriptase (Human immunodeficiency virus 1, UniProt Q72547); assay: Inhibitory constant against HIV-1 reverse transcriptase

SMILES | half-life [1] [h] | Ki [2] [nM]
O=c1ccn([C@H]2CC[C@@H](COP(=O)(O)OP(=O)(O)OP(=O)(O)O)O2)c(=O)[nH]1 | 1 | 545
BP(=O)(OC[C@H]1O[C@@H](n2ccc(N)nc2=O)CS1)OP(=O)(O)C(F)(F)P(=O)(O)O (mixture of isomers) | > 48 | 314
Nc1nc(=O)n([C@H]2CS[C@@H](COP(=O)(O)OP(=O)(O)OP(=O)(O)O)O2)cc1F | – | 501
BP(=O)(OC[C@@H]1CC[C@H](n2cnc3c(N)ncnc32)O1)OP(=O)(O)C(F)(F)P(=O)(O)O (stereo not given in full) | – | 47
BP(=O)(OC[C@@H]1CC[C@H](n2ccc(N)nc2=O)O1)OP(=O)(O)C(F)(F)P(=O)(O)O (stereo not given in full) | > 48 | 23
BP(=O)(OC[C@H]1O[C@@H](n2cc(C)c(=O)[nH]c2=O)C[C@@H]1N=[N+]=[N-])OP(=O)(O)C(F)(F)P(=O)(O)O (stereo not given in full) | > 48 | 94
Nc1ccn([C@H]2CC[C@@H](CO)O2)c(=O)n1 [ZALCITABINE] | – | 51
BP(=O)(OC[C@H]1O[C@@H](n2cc(C)c(=O)[nH]c2=O)C[C@@H]1F)OP(=O)(O)C(F)(F)P(=O)(O)O (stereo not given in full) | – | 46
Nc1ncnc2c1ncn2[C@H]1CC[C@@H](COP(=O)(O)OP(=O)(O)OP(=O)(O)O)O1 [DDA-TRIPHOSPHATE] | – | 20
Cc1cn([C@H]2C[C@H](F)[C@@H](COP(=O)(O)OP(=O)(O)OP(=O)(O)O)O2)c(=O)[nH]c1=O | – | 71
Nc1ccn([C@H]2CC[C@@H](COP(=O)(O)OP(=O)(O)OP(=O)(O)O)O2)c(=O)n1 [DDCTP] | 0.8 | –
Cc1cn([C@H]2C=C[C@@H](COP(=O)(O)OP(=O)(O)OP(=O)(O)O)O2)c(=O)[nH]c1=O [STAVUDINE TRIPHOSPHATE] | – | 56
Cc1cn([C@H]2C[C@H](O)[C@@H](COP(=O)(O)OP(=O)(O)OP(=O)(O)O)O2)c(=O)[nH]c1=O [DEOXYTHYMIDINE_TRIPHOSPHATE] | – | 61
BP(=O)(OC[C@@H]1C=C[C@H](n2cc(C)c(=O)[nH]c2=O)O1)OP(=O)(O)C(F)(F)P(=O)(O)O (stereo not given in full) | – | 45
BP(=O)(OC[C@@H]1C=C[C@H](n2cnc3c(O)nc(N)nc32)C1)OP(=O)(O)C(F)(F)P(=O)(O)O (stereo not given in full) | – | 34
BP(=O)(OC[C@H]1O[C@@H](n2cc(F)c(N)nc2=O)CS1)OP(=O)(O)C(F)(F)P(=O)(O)O (stereo not given in full) | – | 1770
BP(=O)(OC[C@@H]1CC[C@H](n2ccc(=O)[nH]c2=O)O1)OP(=O)(O)C(F)(F)P(=O)(O)O (stereo not given in full) | > 48 | 438
Nc1nc(O)c2ncn([C@H]3C=CC(COP(=O)(O)OP(=O)(O)OP(=O)(O)O)C3)c2n1 (stereo not given in full) | – | 37
BP(=O)(OC[C@@H]1CC[C@H](n2cnc3c(O)nc(N)cc32)O1)OP(=O)(O)C(F)(F)P(=O)(O)O (single isomer, unassigned; diastereomer I) | – | 71
Cc1cn([C@H]2C[C@H](N=[N+]=[N-])[C@@H](CO[P@](=O)(O)O[P@](=O)(O)OP(=O)(O)O)O2)c(=O)[nH]c1=O [ZIDOVUDINE TRIPHOSPHATE] | 2 | 91
Nc1ccn([C@@H]2CS[C@H](COP(=O)(O)OP(=O)(O)OP(=O)(O)O)O2)c(=O)n1 [LAMIVUDINE TRIPHOSPHATE] | 3 | 188
BP(=O)(OC[C@@H]1CC[C@H](n2cc(C)c(=O)[nH]c2=O)O1)OP(=O)(O)C(F)(F)P(=O)(O)O (mixture of isomers) | – | 236
NC1=NCc2c(ncn2[C@H]2CC[C@@H](COP(=O)(O)OP(=O)(O)OP(=O)(O)O)O2)C1=O | – | 25
